Molecules are shown by their SMILES.

Experiment [1] concerns the target MBP-Rns (Escherichia coli, UniProt P16114, I14F/I17F). The experiment in a line: biochemical.
The target of experiment [2] is T1, MBP-Rns (Escherichia coli, UniProt P16114).
T1 construct: full-length codon-optimized Rns with N-terminal MBP solubility tag kept (pMBPRnsOPT2, pMalC2), expressed in E. coli BL21, MBPTrap and heparin columns
The experiment in a line: EMSA, inhibition of DNA binding. Format: biochemical.

Experiment [3] concerns the target MBP-Rns (Escherichia coli, UniProt P16114, R75A). As to the kind of experiment: biochemical.
For experiment [4], the target named is MBP-Rns (Escherichia coli, UniProt P16114, H20A). As to the kind of experiment: biochemical.

For the molecule `CCCCCCCCCC(=O)O` [decanoic acid], the IC50 was greater than 10 mM on MBP-Rns [1], 1.15 mM on MBP-Rns [2], greater than 10 mM against MBP-Rns [3] and greater than 10 mM against MBP-Rns [4].

For orientation: IC50 means the concentration at which inhibition is half-maximal. Lower therefore signals greater potency.

For the origin of these results see article PMC12379584, “Characterization of the ligand binding pocket of the virulence regulator Rns, a member of the AraC/XylS family of transcription factors” (mSphere, 2025).
